Laboratory results reported in patent US9861703B2 (Jinan Platinum Pharmatech Co. Ltd., priority 2013, dated 2018).
Read-outs that look alike come from different tables or passages of the source.

Key:
[1] = tested on: human leukemia cell line K562; assay: MTT proliferation inhibition, K562; assay type: cell-based; settings: Homo sapiens, K562, 48 h
Protocol: (§1) Human leukemia cell line K562, clear-cell ovarian carcinoma cell line ES-2, human prostate cancer cell line PC-3, human breast cancer cell line MCF-7, cell line Hela, human liver cancer cell line H7402 and human ovarian cancer cell line 3-AO were transferred into a culture flask and were cultured in a medium at 37° C. in a 5% CO2 and saturation humidity. One bottle of cells in logarithmic growth phase was picked out and was blew and beaten to be uniform with a pipette, then took some cell suspension solution to prepare blood counting plate smear to count cells under inverted microscope, and then adjusted the cell number to be 1×10^5/mL by adding some culture medium. Cells were seeded on a 96-well plate on which also drug tests performed. Blank control group, negative control group, positive control group and drug test group were established on the plate while the surrounding wells of the plate were not used (but filled with sterile PBS), wherein the blank control groups were prepared by addition of culture medium 150 μL per well, the negative control groups were prepared by addition of cell suspension solution 100 μL per well and culture medium 50 μL per well, the positive control groups were prepared by addition of cell suspension solution 100 μL per well and positive control drug solution 50 μL per well, the drug test groups were prepared by addition of cell suspension solution 100 μL per well and test compound solution 50 μL per well, and there were 5 different concentrations of drug in the positive control group and the drug test group respectively: 0.01, 0.1, 1, 10, 100 μmol·L^−1, each concentration was established with 3 parallel wells. After the drug was added, the 96-well plate was incubated for 48 h at 37° C. in a CO2 incubator of 5% CO2 and saturation humidity. Upon completion of the incubation, 20 μL MTT solution (concentration was 5 mg/mL) was added to each well and incubated for an additional 4 h, and after the 96-well plate was centrifuged at 2000 rpm for 30 min, medium of each well was suck out carefully and removed and 100 μL DMSO was added instead, followed by vibrating on a tablet shaker for 15 min to re-dissolve formazan crystals completely. OD value of each well was measured at 570 nm wavelength using an enzyme-linked immunosorbent assay reader to calculate cellular proliferation inhibitory ratio of each drug in different concentrations. And half-inhibitory concentration (IC50) was calculated using statistical software SPSS 16.0, wherein the cellular proliferation inhibitory ratio can be calculated as following equation: […]

[2] = tested on: human prostate cancer cell line PC-3; assay: MTT proliferation inhibition, PC-3; assay type: cell-based; settings: Homo sapiens, 48 h
Protocol: as §1

[3] = tested on: human breast cancer cell line MCF-7; assay: MTT proliferation inhibition, MCF-7; assay type: cell-based; settings: Homo sapiens, MCF7, 48 h
Protocol: as §1

cell line Hela = assay: MTT proliferation inhibition, Hela; assay type: cell-based; settings: Homo sapiens, 48 h
Protocol: as §1

[4] = tested on: human liver cancer cell line H7402; assay: MTT proliferation inhibition, H7402; assay type: cell-based; settings: Homo sapiens, H7402, 48 h
Protocol: as §1

[5] = tested on: human ovarian cancer cell line 3-AO; assay: MTT proliferation inhibition, 3-AO; assay type: cell-based; settings: Homo sapiens, 48 h
Protocol: as §1

liver cancer H22 [6] = assay: Inhibition assay of intravenous administration against liver cancer H22 (Example 33)
Protocol: Extracted the ascites from H22 ascites tumour bearing mice, washed the ascites with sterile PBS for three times and then resuspended the cells with sterile PBS (cells counts: 3.75×10^7 cells/mL), inoculated it into right oxter of Kunming mice 100 uL per mouse.
The H22 tumor-bearing mice were randomized to 4 groups (7 mice per group) after being weighted. […] The size of tumor was measured by using a vernier calliper and weight of mouse by using an electronic balance at the beginning and ending of every cycle, then calculated their mean value. The mice were sacrificed after 13 days and the tumors were taken out and weighted. Tumor volume and inhibitory ratio were calculated as the following equation (L and W referred to length and width of tumor respectively): […]

H22 tumor cells [7] = settings: Kunming, mouse, in vivo, 14 days
Protocol: (§2) The ascites was extracted from H22 tumour bearing mice with well growth, followed by adding sterile PBS to dilute the ascites to a concentration of 8.5×10^7 cells/mL. 100 uL of the cells solution was suck up by a 1 mL sterile injector to inoculate into right oxter of mice. After 3 days, the mice were weighted and randomized to several groups (almost 8 mice per group, and a bit more in control group). These mice were administrated a predetermined dosage by intravenous or oral gavage with two days off when having administrated for 5 days until two cycles one of which had 7 days. The body weight of mouse was recorded at the beginning and ending of every cycle,
(§3) After being administrated for two cycles, the mice were weighted and recorded, then sacrificed by cervical dislocation to get lung, liver and spleen weighted respectively.
(§4) Overall difference was calculated by the function of one-way analysis of variance (One-Way ANOVA) in Origin 7.5 software; and t-test was used for pair-comparison between drug administrated group and blank group, and the inhibitory ratio of drug in each group was calculated based on the following equation: inhibitory ratio (100%)=(mean tumor weight of control group−mean tumor weight of drug administrated group)/mean tumor weight of control group×100.

H22 tumor cells [8] = assay: Activities of compounds in H22 tumor cells bearing Kunming mice models (Example 34); settings: for Tumor growth inhibition (%) / Tumor weight: after two cycles
Protocol: as §2, §3, §4

liver cancer H22 [9] = assay: Inhibition assay of oral administration against liver cancer H22 (Example 33); assay type: in vivo, Kunming mice; settings: oral gavage, sacrificed after 13 days; for Tumor weight: two cycles (5 days on, 2 off); for inhibitory ratio (%): two cycles
Protocol: (1) the negative control: PBS; (2) Xeloda group: 100 mg/kg/d; (3) TFU group: 70 mg/kg/d; (4) BC-01 group: 100 mg/kg/d.
[formula] [formula] [formula] 2.2: Inhibition Assay of Intravenous Administration Against Liver Cancer H22

[10] = mouse, in vivo, iv, 20 mg/kg/day
[11] = tail intravenous injection, 20 mg/kg/d, sacrificed after 13 days
[12] = intravenous injection, 20 mg/kg/d (0.15 mmol/kg/d)
[13] = oral gavage, 108 mg/kg/d (0.3 mmol/kg/d)

**Q.** Which results are given for `Oc1ncc(F)c(O)n1` [Compound 5-FU, 2,4-dihydroxy-5-fluoropyrimidine, reference compound]?
**A.** EC50 [1]: 16 µM; EC50 [2]: 15.7 µM; EC50 [3]: 76.9 µM; EC50 (cell line Hela): 133 µM; EC50 [4]: 385 µM; EC50 [5]: 60.8 µM; Number of mice alive (liver cancer H22 [6]; Kunming, mouse, in vivo, iv, 20 mg/kg/day, 13 days): 7; Body weight(g) Beginning (liver cancer H22 [6]; [10]): 31.37 ± 4.05 g; Body weight(g) Ending (liver cancer H22 [6]; [10]): 31.92 ± 4.98 g; Tumor weight (liver cancer H22 [6]; [11]): 0.84 ± 0.19 g; inhibitory ratio (%) (liver cancer H22 [6]; [11]): 38.83%; Number of mice alive (H22 tumor cells [7]; iv, 20 mg/kg/day): 4; Tumor growth inhibition (%) (H22 tumor cells [8]; [12]): 10.41%; Tumor weight (H22 tumor cells [8]; [12]): 0.54 ± 0.06 g; Body weight(g) Beginning (H22 tumor cells [8]; [12]): 26.89 ± 2.06 g; Body weight(g) Ending (H22 tumor cells [8]; [12]): 25.51 ± 4.50 g

**Q.** `O=c1[nH]c(=O)n(C2CCCO2)cc1F` (stereo not shown) [TFU] was tested. Which Tumor weight (liver cancer H22 [9]; 70 mg/kg/d) did it give?
**A.** 0.68 g

**Q.** What about the “inhibitory ratio (%)” value (liver cancer H22 [9]; 70 mg/kg/d) of the same molecule?
**A.** 13.38%

**Q.** What does the source list for `CCCCCOC(=O)Nc1nc(=O)n([C@@H]2O[C@H](C)[C@@H](O)[C@H]2O)cc1F` [Xeloda, capecitabine, reference compound]?
**A.** Tumor weight (liver cancer H22 [9]; 100 mg/kg/d): 0.6 g; inhibitory ratio (%) (liver cancer H22 [9]; 100 mg/kg/d): 24.53%; Number of mice alive (H22 tumor cells [7]; po, 108 mg/kg/day): 7; Tumor growth inhibition (%) (H22 tumor cells [8]; [13]): 40.95%; Tumor weight (H22 tumor cells [8]; [13]): 0.35 ± 0.09 g; Body weight(g) Beginning (H22 tumor cells [8]; [13]): 33.00 ± 1.81 g; Body weight(g) Ending (H22 tumor cells [8]; [13]): 31.42 ± 3.56 g
